30 molecules from patent US12673954B2 (BRISTOL-MYERS SQUIBB COMPANY, priority 2021, dated 2026) can be followed below.

Read-outs that look alike come from different tables or passages of the source.

Assay [1] relates to IRF pathway, THP1-Dual™ cells. Put plainly: STING reporter assay in THP1-Dual cells, IRF pathway (Lucia luciferase, QUANTI-Luc). It is filed as cell-based, human. The following applies: THP1-Dual cells, 10% human plasma, 20 hours, Lucia luciferase, 100% activation = 100 μM cGAMP, read-out: IRF (EC50 μM). In outline: (§1)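 Activation normalised between DMSO-only baseline and 100 μM cGAMP maximum, after 20 h compound exposure (starting at 100 μM final) at 37° C, 5% CO2. Supernatant SEAP (QUANTI-Blue, OD620) reports NF-κB; secreted luciferase (QUANTI-Luc, RLU at 5 min) reports IRF.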

For assay [2], the system named is NF-κB pathway, THP1-Dual™ cells. Description: STING reporter assay in THP1-Dual cells, NF-κB pathway (SEAP, QUANTI-Blue). It is filed as cell-based, human. The following applies: THP1-Dual cells, 10% human plasma, 20 hours, SEAP, 100% activation = 100 μM cGAMP, read-out: NFkB (EC50 μM). In outline:
as §1

As for `COC(=O)c1cc(C)cc2c(C)c(CNC(=O)c3cnn4cccnc34)oc12` [EXAMPLE 122, Methyl 3,5-dimethyl-2-((pyrazolo[1,5-a]pyrimidine-3-carboxamido)methyl)benzofuran-7-carboxylate], the EC50 in assay [1] (Homo sapiens, THP1-Dual, 20 h) is 0.53 µM; in assay [2] (Homo sapiens, THP1-Dual, 20 h), 0.54 µM.
On to `O=C(OC(C(F)(F)F)C(F)(F)F)c1cccc2cc(CN3CCc4ccncc4C3=O)oc12` [EXAMPLE 209], for which the EC50 amounted to 18 µM in assay [1] (Homo sapiens, THP1-Dual, 20 h) and 19 µM in assay [2] (Homo sapiens, THP1-Dual, 20 h).
For the molecule `Cc1cc(C(=O)O)c2oc(CNC(=O)c3cncc4cccnc34)cc2c1` [EXAMPLE 192, 2-((1,6-naphthyridine-8-carboxamido)methyl)-5-methylbenzofuran-7-carboxylic acid], the EC50 in assay [1] (Homo sapiens, THP1-Dual, 20 h) was 79 µM; in assay [2] (Homo sapiens, THP1-Dual, 20 h) it was 94 µM.
Take `C[C@H](NC(=O)c1cnn2cccnc12)c1oc2c(C(=O)OC3COC3)cc(Cl)cc2c1Cl` [EXAMPLE 298, Oxetan-3-yl (S)-3,5-dichloro-2-(1-(pyrazolo[1,5-a]pyrimidine-3-carboxamido)ethyl)benzofuran-7-carboxylate]: the EC50 in assay [1] (Homo sapiens, THP1-Dual, 20 h) was 3.6 µM; in assay [2] (Homo sapiens, THP1-Dual, 20 h) it was 3.3 µM.
For the molecule `COC(=O)c1cc(C(F)(F)F)cc2cc(CNC(=O)c3cnn4cccnc34)oc12` [EXAMPLE 106, Methyl 2-((pyrazolo[1,5-a]pyrimidine-3-carboxamido)methyl)-5-(trifluoromethyl) benzofuran-7-carboxylate], the EC50 in assay [1] (Homo sapiens, THP1-Dual, 20 h) came to 0.75 µM; in assay [2] (Homo sapiens, THP1-Dual, 20 h), 1.1 µM.
For `COC(=O)c1cc(Cl)cc2cc(CNC(=O)c3cnn4cc(C)cnc34)oc12` [Example 55, Methyl 5-chloro-2-((6-methylpyrazolo[1,5-a]pyrimidine-3-carboxamido)methyl) benzofuran-7-carboxylate], the EC50 in assay [1] and in assay [2] was 1.1 µM in each case.
In the case of `O=C(NO)c1cc(Cl)cc2cc(CNC(=O)c3cnn4cccnc34)oc12` [EXAMPLE 405, N-((5-Chloro-7-(hydroxycarbamoyl)benzofuran-2-yl)methyl)pyrazolo[1,5-a]pyrimidine-3-carboxamide], the EC50 in assay [1] (Homo sapiens, THP1-Dual, 20 h) came to 30 µM; in assay [2] (Homo sapiens, THP1-Dual, 20 h), 61 µM.
In the same order, the values of `COC(=O)c1cc(Cl)cc2cc(CNC(=O)c3cncnc3OC)oc12` [Example 73, Methyl 5-chloro-2-((4-methoxypyrimidine-5-carboxamido)methyl)benzofuran-7-carboxylate] are 2.1 µM and 2.6 µM.
As for `COC(OC(=O)c1cc(F)cc2cc(CNC(=O)c3cnn4cccnc34)oc12)C(F)(F)F` (single isomer, unassigned) [EXAMPLE 319, 2,2,2-Trifluoro-1-methoxyethyl 5-fluoro-2-((pyrazolo[1,5-a]pyrimidine-3-carboxamido)methyl)benzofuran-7-carboxylate], the concentration for a half-maximal effect (EC50) in assay [1] (Homo sapiens, THP1-Dual, 20 h) worked out at 2.4 µM; in assay [2] (Homo sapiens, THP1-Dual, 20 h) it was 2.5 µM.
The matching figures for `COC(=O)c1cc(Cl)cc2cc(CN3CCc4ccncc4C3=O)oc12` [Example 77, Methyl 5-chloro-2-((1-oxo-3,4-dihydro-2,7-naphthyridin-2(1H)-yl)methyl)benzofuran-7-carboxylate]: 5.5 µM and 6.3 µM.
`CCOc1ncncc1C(=O)NCc1cc2cc(C)cc(C(=O)OC)c2o1` [Example 95, Methyl 2-((4-ethoxypyrimidine-5-carboxamido)methyl)-5-methylbenzofuran-7-carboxylate]: the EC50 in assay [1] (Homo sapiens, THP1-Dual, 20 h) amounted to 13 µM; in assay [2] (Homo sapiens, THP1-Dual, 20 h), 16 µM.
Take `CC(C)OC(=O)c1cc(F)cc2cc(CNC(=O)c3cnn4cccnc34)oc12` [EXAMPLE 232, Isopropyl 5-fluoro-2-((pyrazolo[1,5-a]pyrimidine-3-carboxamido)methyl)benzofuran-7-carboxylate]: the EC50 in assay [1] (Homo sapiens, THP1-Dual, 20 h) was 1 µM; in assay [2] (Homo sapiens, THP1-Dual, 20 h), 0.92 µM.
In the case of `O=C(OC1CC1)c1cccc2cc(CN3CCc4ccncc4C3=O)oc12` [EXAMPLE 207, Cyclopropyl 2-((1-oxo-3,4-dihydro-2,7-naphthyridin-2(1H)-yl)methyl)benzofuran-7-carboxylate], the EC50 in assay [1] (Homo sapiens, THP1-Dual, 20 h) worked out at 9.2 µM; in assay [2] (Homo sapiens, THP1-Dual, 20 h), 17 µM.
In the same order, the values of `COC(=O)c1cc(F)cc2c(Cl)c(CNC(=O)c3cnn4cccnc34)oc12` [EXAMPLE 110, Methyl 3-chloro-5-fluoro-2-((pyrazolo[1,5-a]pyrimidine-3-carboxamido)methyl)benzofuran-7-carboxylate] are 0.22 µM and 0.27 µM.
As to `COC(=O)c1ccc(O)c2cc(CNC(=O)c3cnn4cccnc34)oc12` [EXAMPLE 34, Methyl 4-hydroxy-2-((pyrazolo[1,5-a]pyrimidine-3-carboxamido)methyl)benzofuran-7-carboxylate], the EC50 in assay [1] (Homo sapiens, THP1-Dual, 20 h) is 79 µM; in assay [2] (Homo sapiens, THP1-Dual, 20 h), over 100 µM.
With `COC(=O)c1cc(Cl)cc2cc(CNC(=O)c3cncc4cccnc34)oc12` [Example 50, Methyl 2-((1,6-naphthyridine-8-carboxamido)methyl)-5-chlorobenzofuran-7-carboxylate], the EC50 is 0.93 µM in assay [1] (Homo sapiens, THP1-Dual, 20 h) and 1.1 µM in assay [2] (Homo sapiens, THP1-Dual, 20 h).
`O=C(NCc1cc2cc(Cl)cc(C(=O)OCC(F)(F)F)c2o1)c1cnccn1` [EXAMPLE 373, 2,2,2-Trifluoroethyl 5-chloro-2-((pyrazine-2-carboxamido)methyl)benzofuran-7-carboxylate]: the EC50 worked out at 3.9 µM in assay [1] (Homo sapiens, THP1-Dual, 20 h) and 3.9 µM in assay [2] (Homo sapiens, THP1-Dual, 20 h).
Regarding `CC(C)OC(=O)c1cccc2cc(CN3CCc4ccncc4C3=O)oc12` [EXAMPLE 206, Isopropyl 2-((1-oxo-3,4-dihydro-2,7-naphthyridin-2(1H)-yl)methyl)benzofuran-7-carboxylate], the EC50 in assay [1] (Homo sapiens, THP1-Dual, 20 h) is 13 µM; in assay [2] (Homo sapiens, THP1-Dual, 20 h) it was 12 µM.
The matching figures for `CC(OC(=O)c1cccc2cc(CNC(=O)c3cnn4cccnc34)oc12)C(F)(F)F` (stereo not drawn) [EXAMPLE 218, 1,1,1-Trifluoropropan-2-yl 2-((pyrazolo[1,5-a]pyrimidine-3-carboxamido)methyl)benzofuran-7-carboxylate]: 5.5 µM and 4.4 µM.
Consider `C[C@@H](OC(=O)c1cc(Cl)cc2c(Cl)c(CNC(=O)c3cnn4cccnc34)oc12)C(F)(F)F` [EXAMPLE 295, (R)-1,1,1-Trifluoropropan-2-yl 3,5-dichloro-2-((pyrazolo[1,5-a]pyrimidine-3-carboxamido)methyl)benzofuran-7-carboxylate], for which the EC50 turned out to be 1.1 µM in assay [1] (Homo sapiens, THP1-Dual, 20 h) and 0.56 µM in assay [2] (Homo sapiens, THP1-Dual, 20 h).
In the case of `CSC(=O)c1cccc2cc(CNC(=O)c3cnccn3)oc12` [EXAMPLE 381, S-Methyl 2-((pyrazine-2-carboxamido)methyl)benzofuran-7-carbothioate], the EC50 in assay [1] (Homo sapiens, THP1-Dual, 20 h) is 13 µM; in assay [2] (Homo sapiens, THP1-Dual, 20 h), 12 µM.
In the same order, the values of `COC(=O)c1cccc2cc(CNC(=O)c3cncnc3)oc12` [EXAMPLE 15, Methyl 2-((pyrimidine-5-carboxamido)methyl)benzofuran-7-carboxylate] are 44 µM and 39 µM.
For `O=C(OCC1CC1)c1cccc2cc(CN3CCc4ccncc4C3=O)oc12` [EXAMPLE 354, Cyclopropylmethyl 2-((1-oxo-3,4-dihydro-2,7-naphthyridin-2(1H)-yl)methyl)benzofuran-7-carboxylate], the EC50 in assay [1] (Homo sapiens, THP1-Dual, 20 h) was 46 µM; in assay [2] (Homo sapiens, THP1-Dual, 20 h), 70 µM.
In the same order, the values of `C[C@@H](OC(=O)c1c(F)c(F)cc2cc(CNC(=O)c3cnn4cccnc34)oc12)C(F)(F)F` [EXAMPLE 284, (R)-1,1,1-Trifluoropropan-2-yl 5,6-difluoro-2-((pyrazolo[1,5-a]pyrimidine-3-carboxamido)methyl)benzofuran-7-carboxylate] are 9.6 µM and 6.3 µM.
Take `COC[C@@H](C)OC(=O)c1cc(Cl)cc2cc(CNC(=O)c3cnn4cccnc34)oc12` [EXAMPLE 242, (R)-1-Methoxypropan-2-yl 5-chloro-2-((pyrazolo[1,5-a]pyrimidine-3-carboxamido)methyl)benzofuran-7-carboxylate]: the EC50 in assay [1] (Homo sapiens, THP1-Dual, 20 h) came out at 2.4 µM; in assay [2] (Homo sapiens, THP1-Dual, 20 h), 2.1 µM.
On to `COC(=O)c1cc(F)cc2cc(Cn3ccc4ccncc4c3=O)oc12` [EXAMPLE 38, Methyl 5-fluoro-2-((1-oxo-2,7-naphthyridin-2(1H)-yl)methyl)benzofuran-7-carboxylate], for which the EC50 is 2.3 µM in assay [1] (Homo sapiens, THP1-Dual, 20 h) and 2.5 µM in assay [2] (Homo sapiens, THP1-Dual, 20 h).
`Cc1cc(C(=O)OCC(F)(F)F)c2oc(Cn3cnc4ccncc4c3=O)cc2c1` [EXAMPLE 374, 2,2,2-Trifluoroethyl 5-methyl-2-((4-oxopyrido[4,3-d]pyrimidin-3(4H)-yl)methyl)benzofuran-7-carboxylate]: the EC50 in assay [1] (Homo sapiens, THP1-Dual, 20 h) worked out at 4.3 µM; in assay [2] (Homo sapiens, THP1-Dual, 20 h), 3.5 µM.
As for `COC(OC(=O)c1cc(C(F)(F)F)cc2cc(CNC(=O)c3cnn4cccnc34)oc12)C(F)(F)F` (single isomer, unassigned) [EXAMPLE 352, 2,2,2-Trifluoro-1-methoxyethyl 2-((pyrazolo[1,5-a]pyrimidine-3-carboxamido)methyl)-5-(trifluoromethyl)benzofuran-7-carboxylate], the values for the EC50 in assay [1] and in assay [2] were 1.9 µM and 3.4 µM, respectively.
`Cc1ccnc2c(C(=O)NCc3cc4cccc(C(=O)OCC(F)(F)F)c4o3)cnn12` [EXAMPLE 221, 2,2,2-Trifluoroethyl 2-((7-methylpyrazolo[1,5-a]pyrimidine-3-carboxamido)methyl)benzofuran-7-carboxylate]: the EC50 was 42 µM in assay [1] (Homo sapiens, THP1-Dual, 20 h) and 83 µM in assay [2] (Homo sapiens, THP1-Dual, 20 h).
As for `COC(=O)c1cc(C)cc2cc(CNC(=O)c3cnn4cc(C)cnc34)oc12` [Example 90, Methyl 5-methyl-2-((6-methylpyrazolo[1,5-a]pyrimidine-3-carboxamido)methyl)benzofuran-7-carboxylate], the EC50 stood at 2.2 µM in assay [1] (Homo sapiens, THP1-Dual, 20 h) and 3 µM in assay [2] (Homo sapiens, THP1-Dual, 20 h).
